Measurements as given in patent US12442035B2, “Compositions and methods for detecting antibiotic responsive mRNA expression signatures and uses thereof” (THE BROAD INSTITUTE, INC., priority 2018, dated 2025).
≈ marks a conversion by molar mass, not a printed value. Entries after “also recorded” stand apart in the source; their conditions may differ. Where two headings read alike, the source gives them in different places.

Columns and labels:
[1] = test system: S. aureus clinical isolates; experiment: Standard broth microdilution MIC; type: cell-based; conditions: Staphylococcus aureus, read-out: levo MIC
From the text: (§3) All strains in this study (Table 7) were obtained from clinical or reference microbiological laboratories, including both local hospitals and MDRO strain collections from the Centers for Disease Control's Antibiotic Resistance Isolate Bank (see e.g., World Wide Web at (www).cdc.gov/ARIsolateBank/) and the New York State Department of Health.

[2] = test system: E. coli clinical isolates; experiment: Standard broth microdilution MIC; type: cell-based, Escherichia coli; conditions: for MIC: Escherichia coli
From the text: as §3

[3] = test system: K. pneumoniae clinical isolates; experiment: Standard broth microdilution MIC; type: cell-based, Klebsiella pneumoniae
From the text: as §3

[4] = test system: K. pneumoniae clinical isolates; experiment: RNA-Seq transcriptional response to antibiotic exposure, GO term enrichment; type: cell-based, Klebsiella pneumoniae; conditions: CLSI breakpoint concentration, 0, 10, 30, 60 minutes
From the text: (§1) Fisher's combined probability test was used to select only those genes whose expression after antibiotic treatment was statistically distinguishable from its expression at any timepoint in the untreated samples. Gene ontology (GO) terms were assigned using blast2GO (version 1.4.4), with hypergeometric testing for enrichment. For each pathogen-antibiotic pair, the fold-change threshold in DESeq2 used to test statistical significance was increased to select 60-100 antibiotic-responsive transcripts with maximal stringency, a number readily accommodated by the NanoString® assay format. […] As with responsive genes, the fold-change threshold was varied in order to select the top 10-20 control transcripts. […] See Supplemental Methods sections below for further details.
(§2) After antibiotic treatment as described in the above Materials and Methods section, cells were pelleted, resuspended in 0.5 mL Trizol reagent (ThermoFisher Scientific), transferred to 1.5 mL screw-cap tubes containing 0.25 mL of 0.1 mm diameter Zirconia/Silica beads (BioSpec Products), and lysed mechanically via bead-beating for 3-5 one-minute cycles on a Minibeadbeater-16 (BioSpec) or one 90-second cycle at 10 m/sec on a FastPrep (MP Bio). After addition of 0.1 mL chloroform, each sample tube was mixed thoroughly by inversion, incubated for 3 minutes at room temperature, and centrifuged at 12,000×g for 15 minutes at 4° C. […]

[5] = test system: A. baumannii clinical isolates; experiment: as above; type: cell-based, Acinetobacter baumannii; conditions: CLSI breakpoint concentration, 0, 10, 30, 60 minutes
From the text: as §1, §2

[6] = test system: E. coli clinical isolates; experiment: as above; type: cell-based, Escherichia coli; conditions: CLSI breakpoint concentration, 0, 10, 30, 60 minutes

## C[C@H]1COc2c(N3CCN(C)CC3)c(F)cc3c(=O)c(C(=O)O)cn1c23 [levofloxacin]
[1]; S. aureus strain RB003
  MIC: 0.125 µg/mL (≈ 0.346 µM)
[1]; S. aureus strain RB004
  MIC: 32 µg/mL (≈ 88.6 µM)
[1]; S. aureus strain RB006
  MIC: 0.06 µg/mL (≈ 0.166 µM)
[1]; S. aureus strain RB007
  MIC: 16 µg/mL (≈ 44.3 µM)
[1]; S. aureus strain RB010
  MIC: > 32 µg/mL
[1]; S. aureus strain RB045
  MIC: 32 µg/mL (≈ 88.6 µM)
[1]; S. aureus strain RB047
  MIC: > 32 µg/mL
[1]; S. aureus strain RB064
  MIC: 8 µg/mL (≈ 22.1 µM)
[1]; S. aureus strain RB065
  MIC: 0.06 µg/mL (≈ 0.166 µM)
[1]; S. aureus strain RB066
  MIC: 0.06 µg/mL (≈ 0.166 µM)
[1]; S. aureus strain RB067
  MIC: 0.13 µg/mL (≈ 0.36 µM)
[1]; S. aureus strain RB0069
  MIC: 0.13 µg/mL (≈ 0.36 µM)
[1]; S. aureus strain RB072
  MIC: 4 µg/mL (≈ 11.1 µM)
[1]; S. aureus strain RB074
  MIC: 32 µg/mL (≈ 88.6 µM)
[1]; S. aureus strain RB090
  MIC: 32 µg/mL (≈ 88.6 µM)
[1]; S. aureus strain RB095
  MIC: 32 µg/mL (≈ 88.6 µM)
[1]; S. aureus strain RB096
  MIC: 0.13 µg/mL (≈ 0.36 µM)
[1]; S. aureus strain RB098
  MIC: 0.13 µg/mL (≈ 0.36 µM)
[1]; S. aureus strain RB211
  MIC: 16 µg/mL (≈ 44.3 µM)
[1]; S. aureus strain RB219
  MIC: 32 µg/mL (≈ 88.6 µM)
[1]; S. aureus strain RB221
  MIC: 0.13 µg/mL (≈ 0.36 µM)
[1]; S. aureus strain RB223
  MIC: 0.13 µg/mL (≈ 0.36 µM)
[1]; S. aureus strain RB245
  MIC: 0.25 µg/mL (≈ 0.692 µM)
[1]; S. aureus strain RB247
  MIC: 0.5 µg/mL (≈ 1.38 µM)

## C[C@@H](O)[C@H]1C(=O)N2C(C(=O)O)=C(S[C@@H]3CN[C@H](C(=O)N(C)C)C3)[C@H](C)[C@H]12 [mero]
[2]; EcMero strain AR0048
  mero MIC: 32 mg/L
[2]; EcMero strain AR0055
  mero MIC: 8 mg/L
[2]; EcMero strain AR0058
  mero MIC: 0.25 mg/L
[2]; EcMero strain AR0061
  mero MIC: 8 mg/L
[2]; EcMero strain AR0069
  mero MIC: 16 mg/L
[2]; EcMero strain AR0077
  mero MIC: 0.5 mg/L
[2]; EcMero strain AR0089
  mero MIC: 0.5 mg/L
[2]; EcMero strain AR0104, value marked *
  mero MIC: 1* mg/L
[2]; EcMero strain BAA2469
  mero MIC: 16 mg/L
[2]; EcMero strain BAA2523 (RB553), value marked *
  mero MIC: 0.5* mg/L
[2]; EcMero strain BIDMC_77
  mero MIC: 0.5 mg/L
[2]; EcMero strain IDR1200024571
  mero MIC: >32 mg/L
[2]; EcMero strain IDR1200039757
  mero MIC: >32 mg/L
[2]; EcMero strain IDR1300027657
  mero MIC: 1 mg/L
[2]; EcMero strain IDR1600029769
  mero MIC: 8 mg/L
[2]; EcMero strain IDR1600035372
  mero MIC: 0.5 mg/L
[3]; KpMero strain AR0034
  mero MIC: 2 mg/L
[3]; KpMero strain AR0040
  mero MIC: >32 mg/L
[3]; KpMero strain AR0041
  mero MIC: 16 mg/L
[3]; KpMero strain AR0042
  mero MIC: <0.5 mg/L
[3]; KpMero strain AR0043
  mero MIC: 2 mg/L
[3]; KpMero strain AR0044
  mero MIC: 4 mg/L
[3]; KpMero strain AR0047
  mero MIC: 4 mg/L
[3]; KpMero strain AR0075
  mero MIC: 8 mg/L
[3]; KpMero strain AR0087
  mero MIC: 1 mg/L
[3]; KpMero strain AR0135
  mero MIC: 8 mg/L
[3]; KpMero strain AR0139
  mero MIC: 32 mg/L
[3]; KpMero strain BAA2524 (RB554), value marked *
  mero MIC: 0.5* mg/L
[3]; KpMero strain BIDMC_14
  mero MIC: 16 mg/L
[3]; KpMero strain BIDMC_22
  mero MIC: 0.25 mg/L
[3]; KpMero strain BIDMC_31
  mero MIC: 0.125 mg/L
[3]; KpMero strain BIDMC_35
  mero MIC: >32 mg/L
[3]; KpMero strain BIT-03
  mero MIC: 8 mg/L
[3]; KpMero strain BIT-04
  mero MIC: 32 mg/L
[3]; KpMero strain BIT-05
  mero MIC: >32 mg/L
[3]; KpMero strain BIT-12
  mero MIC: <0.5 mg/L
[3]; KpMero strain BIT-16
  mero MIC: ≤0.5 mg/L
[3]; KpMero strain BWH_2
  mero MIC: 16 mg/L
[3]; KpMero strain BWH_15
  mero MIC: 8 mg/L
[3]; KpMero strain BWH_30
  mero MIC: ≤0.5 mg/L
[3]; KpMero strain BWH_36
  mero MIC: 16 mg/L
[3]; KpMero strain CDC_1500610
  mero MIC: ≤0.5 mg/L
[3]; KpMero strain IDR1200023303
  mero MIC: >32 mg/L
[3]; KpMero strain IDR1600031102-01-00
  mero MIC: >32 mg/L
[3]; KpMero strain IDR1600037310
  mero MIC: 1 mg/L
[3]; KpMero strain IDR1600057468-01-00
  mero MIC: 4 mg/L
[3]; KpMero strain MGH_17
  mero MIC: ≤0.5 mg/L
[3]; KpMero strain MGH_18
  mero MIC: ≤0.5 mg/L
[3]; KpMero strain MGH_19
  mero MIC: ≤0.5 mg/L
[3]; KpMero strain MGH_20
  mero MIC: ≤0.5 mg/L
[3]; KpMero strain MGH_31
  mero MIC: 8 mg/L
[3]; KpMero strain MGH_35
  mero MIC: 2 mg/L
[3]; KpMero strain MGH_36
  mero MIC: ≤0.5 mg/L
[3]; KpMero strain MGH_39
  mero MIC: 2 mg/L
[3]; KpMero strain MGH_48
  mero MIC: ≤0.5 mg/L
[3]; KpMero strain MGH_71
  mero MIC: 32 mg/L
[3]; KpMero strain RB039
  mero MIC: ≤0.5 mg/L
[3]; KpMero strain RB041
  mero MIC: ≤0.5 mg/L
[3]; KpMero strain RB042
  mero MIC: ≤0.5 mg/L
[3]; KpMero strain UCI_7
  mero MIC: 0.25 mg/L
[3]; KpMero strain UCI_19
  mero MIC: >32 mg/L
[3]; KpMero strain UCI_37
  mero MIC: 32 mg/L
[3]; KpMero strain UCI_38
  mero MIC: ≤0.5 mg/L
[3]; KpMero strain UCI_44
  mero MIC: 0.25 mg/L
[3]; KpMero strain UCI_61
  mero MIC: 32 mg/L
[3]; KpMero strain UCI_64
  mero MIC: 0.25 mg/L

## C[C@@H](O)[C@H]1C(=O)N2C(C(=O)O)=C(S[C@@H]3CN[C@H](C(=O)N(C)C)C3)[C@H](C)[C@H]12 [meropenem]
[2]; BAA2523, E. coli BAA2523 (blaOXA-48), inoculum of 10^7 cfu/mL
  MIC: ≥ 32 µg/mL
[2]; BAA2523, E. coli BAA2523 (blaOXA-48), standard broth microdilution, inoculum of 10^5 cfu/mL
  MIC: 0.5 to 1 µg/mL (≈ 1.3 to 2.61 µM)
[2]; E. coli AR0104 (blaKPC-4), inoculum of 10^7 cfu/mL
  MIC: ≥ 32 µg/mL
[2]; E. coli AR0104 (blaKPC-4), standard broth microdilution, inoculum of 10^5 cfu/mL
  MIC: 0.5 to 1 µg/mL (≈ 1.3 to 2.61 µM)
[4]
  Gene ontology enrichment of antibiotic-responsive transcripts: affected lipopolysaccharide biosynthesis
[5]
  Gene ontology enrichment of antibiotic-responsive transcripts: induced a heat shock response
[6]
  Gene ontology enrichment of antibiotic-responsive transcripts: affected lipopolysaccharide biosynthesis; also recorded: induced a heat shock response
